Counter-ions that a name gives are not always drawn.
Columns and labels:
NCI-H69 cells = assay: In vitro cell inhibition assay - NCI-H69 cell proliferation (CellTiter-Glo); type: cell-based; conditions: Homo sapiens, NCI-H69, H69 small cell lung cancer cell proliferation
Procedure, shortened: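 Proliferation was assessed after a 7-day compound treatment of cells seeded at 1×10^3 per well. IC50 values came from fitting inhibition rates derived from CellTiter-Glo luminescence.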

NCI-H526 cells = assay: In vitro cell inhibition assay - NCI-H526 cell proliferation (CellTiter-Glo); type: cell-based; conditions: Homo sapiens, NCI-H526, 120 h, H526 small cell lung cancer cell proliferation, 5 days
Procedure: 6. In Vitro Cell Inhibition Assay—NCI-H526 Cell Proliferation
The inhibitory effect of the compounds on cell proliferation was assessed by detecting the number of viable cells using CellTiter-Glo® reagent. NCI-H526 cells in the logarithmic growth phase were collected and inoculated into transparent bottom 96-well plates at a density 1×10^3 cells per well with 100 μL of medium, and incubated at 37° C., 5% CO2 overnight. The compounds were sequentially diluted in a 5-fold concentration gradient with DMSO to obtain 8 different concentrations. These were then diluted with RPMI-640 (containing 10% FBS) cell culture medium to obtain the compound working solution (2×), which was added to the cell supernatant at 100 μL per well. The incubation continued for 5 days at 37° C., 5% CO2. The plate was then removed and equilibrated at room temperature (25° C.) along with the CellTiter-Glo® mixing reagent for 10-30 minutes; 80 μL of the culture medium was carefully aspirated from each well, and 80 μL of CellTiter-Glo® reagent was added. The cells were thoroughly mixed with the CellTiter-Glo® mixing reagent using a microplate shaker for 2 min. and then incubated at room temperature for 10 min. The 96-well plate was subsequently placed on a multifunctional microplate reader to record the Luminescence values (RLU).
The inhibition rate was calculated using the following formula: […]
Note: ‘Negative’ refers to the group without inhibitors; ‘Blank’ refers to the group without cells.
The IC50 value was determined by fitting the inhibition rate by GraphPad Prism software.

LSD1 = LSD1 (Homo sapiens (Human), UniProt O60341); assay: In vitro enzyme inhibition assay - LSD1 (HTRF); type: biochemical
NCI-H1417 cells = assay: In vitro cell inhibition assay - H1417 cell proliferation (CellTiter-Glo); type: cell-based; conditions: Homo sapiens, NCI-H1417, H1417 small cell lung cancer cell proliferation
Procedure, shortened: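 Cells exposed to 8 compound concentrations (5-fold dilutions) in BEGM with 10% FBS for 7 days at 37° C., 5% CO2. Viable cells measured by CellTiter-Glo luminescence; inhibition versus no-inhibitor and no-cell controls, IC50 fitted.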

HDAC8 = HDAC8 (Homo sapiens (Human), UniProt Q9BY41); assay: In vitro enzyme inhibition assay - HDAC (HDAC-Glo I/II), HDAC8; type: biochemical; conditions: read-out: HDAC IC50 (nM) HDAC 8
HDAC8, sequence (Q9BY41 whole entry): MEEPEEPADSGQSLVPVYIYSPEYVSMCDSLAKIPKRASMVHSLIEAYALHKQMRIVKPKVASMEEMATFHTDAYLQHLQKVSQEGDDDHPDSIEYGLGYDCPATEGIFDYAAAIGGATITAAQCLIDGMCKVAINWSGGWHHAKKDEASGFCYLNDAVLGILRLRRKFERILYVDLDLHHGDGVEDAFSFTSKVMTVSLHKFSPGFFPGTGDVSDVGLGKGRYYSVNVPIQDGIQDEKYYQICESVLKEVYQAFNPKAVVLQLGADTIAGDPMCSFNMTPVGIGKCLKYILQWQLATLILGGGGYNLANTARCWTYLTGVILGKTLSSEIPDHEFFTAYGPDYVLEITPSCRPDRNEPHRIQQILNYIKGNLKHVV
Procedure, shortened: (§1)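 The compound, serially diluted 5-fold in DMSO across 8 concentrations starting from a 1 mM stock, was made up as 4× working solutions in HDAC buffer. It was then tested in the HDAC-Glo I/II system, and luminescence was recorded. IC50 values came from variable-slope four-parameter curves of inhibition rate.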

pan-HDAC = assay: In vitro enzyme inhibition assay - HDAC (HDAC-Glo I/II), pan-HDAC; type: biochemical
Procedure, shortened: as §1

Row | IC50 (NCI-H69 cells) [nM] | IC50 (NCI-H526 cells) [nM] | IC50 (LSD1) [nM] | IC50 (NCI-H1417 cells) [nM] | IC50 (HDAC8) [nM] | IC50 (pan-HDAC) [nM] | Structure (SMILES)
1 | 38.5 | 35.3 | 0.62 | 4.96 | – | – | COc1ccc(-c2cnc(N3CCC(NCc4ccc(CCC(=O)NO)cc4)CC3)c(C#N)c2-c2ccc(C#N)c(F)c2)cc1O [Example 43, 3-(4-((1-(3-Cyano-4-(4-cyano-3-fluorophenyl)-5-(3-hydroxy-4-methoxyphenyl)pyridin-2-yl)piperidin-4-yl)amino)methyl)phenyl)-N-hydroxypropanamide formate]
2 | 232 | 333 | – | 80.1 | – | – | COc1ccc(-c2cnc(N3CCN(CCc4ccc(/C=C/C(=O)NO)cc4)CC3)c(C#N)c2-c2ccc(C#N)c(F)c2)cc1O [Example 49, (E)-3-(4-(2-(4-(3-Cyano-4-(4-cyano-3-fluorophenyl)-5-(3-hydroxy-4-methoxyphenyl)pyridin-2-yl)piperazin-1-yl)ethyl)phenyl)-N-hydroxyacrylamide hydrochloride]
3 | 40.3 | – | 0.6 | 14.5 | 3.09 | 163 | COc1ccc(-c2cnc(N3CCC(NCc4ccc(CCC(=O)NO)cc4)CC3)c(C)c2-c2ccc(C#N)c(F)c2)cc1O [Example 209, 3-(4-(((1-(4-(4-Cyano-3-fluorophenyl)-5-(3-hydroxy-4-methoxyphenyl)-3-methylpyridin-2-yl)piperidin-4-yl)amino)methyl)phenyl)-N-hydroxypropanamide hydrochloride]
4 | 189 | – | 0.31 | 10.7 | 83.5 | 2.04 | COc1ccc(-c2cnc(N3CCC(NCc4ccc(/C=C/C(=O)NO)cc4C)CC3)c(C#N)c2-c2ccc(C#N)c(F)c2)cc1O [Example 211, (E)-3-(4-(((1-(3-Cyano-4-(4-cyano-3-fluorophenyl)-5-(3-hydroxy-4-methoxyphenyl)pyridin-2-yl)piperidin-4-yl)amino)methyl)-3-methylphenyl)-N-hydroxyacrylamide formate]
5 | 53.8 | – | 0.04 | 1.16 | 41.5 | 6.55 | C/C(=C\C(=O)NO)c1ccc(CNC2CCN(c3ncc(-c4ccc(OCC(C)(C)O)c(O)c4)c(-c4ccc(C#N)c(F)c4)c3C#N)CC2)cc1 [Example 212, (E)-3-(4-(((1-(3-Cyano-4-(4-cyano-3-fluorophenyl)-5-(3-hydroxy-4-(2-hydroxy-2-methylpropoxy)phenyl)pyridin-2-yl)piperidin-4-yl)amino)methyl)phenyl)-N-hydroxybut-2-enamide hydrochloride]
6 | 19.3 | 29 | 17.1 | 16.8 | – | 2.2 | CC(C)(O)COc1ccc(-c2cnc(N3CCC(NCc4ccc(/C=C/C(=O)NO)nc4)CC3)c(CC#N)c2-c2ccc(C#N)c(F)c2)cc1O [Example 221, (E)-3-(5-(((1-(4-(4-Cyano-3-fluorophenyl)-3-(cyanomethyl)-5-(3-hydroxy-4-(2-hydroxy-2-methylpropoxy)phenyl)pyridin-2-yl)piperidin-4-yl)amino)methyl)pyridin-2-yl)-N-hydroxyacrylamide formate]
7 | 4.56 | 16.8 | 1.01 | 3.23 | – | 4.37 | CC(C)(O)COc1ccc(-c2cnc(N3CCC(NC(C)(C)c4ccc(/C=C/C(=O)NO)cc4)CC3)c(C#N)c2-c2ccc(C#N)c(F)c2)cc1O [Example 223, (E)-3-(4-(2-((1-(3-Cyano-4-(4-cyano-3-fluorophenyl)-5-(3-hydroxy-4-(2-hydroxy-2-methylpropoxy)phenyl)pyridin-2-yl)piperidin-4-yl)amino)propan-2-yl)phenyl)-N-hydroxyacrylamide hydrochloride]
8 | 1140 | – | 0.07 | 1.31 | 140 | 82.4 | N#Cc1ccc(-c2c(-c3ccc(OCCc4ccc(/C=C/C(=O)NO)cc4)c(O)c3)cnc(N3CCC(N)CC3)c2C#N)cc1F [Example 231, (E)-3-(4-(2-(4-(6-(4-Aminopiperidin-1-yl)-5-cyano-4-(4-cyano-3-fluorophenyl)pyridin-3-yl)-2-hydroxyphenoxy)ethyl)phenyl)-N-hydroxyacrylamide hydrochloride]
9 | 77.6 | – | 1.08 | 15 | 51.1 | 13.3 | COc1ccc(-c2c(C#N)cc(N3CCC(NCc4cnc(/C=C/C(=O)NO)nc4)CC3)nc2-c2ccc(C#N)c(F)c2)cc1O [Example 234, (E)-3-(5-(((1-(4-Cyano-6-(4-cyano-3-fluorophenyl)-5-(3-hydroxy-4-methoxyphenyl)pyridin-2-yl)piperidin-4-yl)amino)methyl)pyrimidin-2-yl)-N-hydroxyacrylamide formate]
10 | 2.74 | 11.7 | 1.1 | 1.26 | – | 0.86 | COc1ccc(-c2cnc(N3CCC(NCc4ccc(/C=C/C(=O)NO)cc4)CC3)c(C#N)c2-c2cnc(C#N)c(F)c2)cc1O [Example 249, (E)-3-(4-(((1-(3′,6-Dicyano-5-fluoro-5′-(3-hydroxy-4-methoxyphenyl)-[3,4′-bipyridin]-2′-yl)piperidin-4-yl)amino)methyl)phenyl)-N-hydroxyacrylamide formate]
11 | 7.82 | 11 | 1.54 | 3.39 | – | 0.68 | COc1cc(F)c(-c2cnc(N3CCC(NCc4ccc(/C=C/C(=O)NO)cc4)CC3)c(C#N)c2-c2ccc(C#N)nc2)cc1O [Example 255, (E)-3-(4-(((1-(3′,6-Dicyano-5′-(2-fluoro-5-hydroxy-4-methoxyphenyl)-[3,4′-bipyridin]-2′-yl)piperidin-4-yl)amino)methyl)phenyl)-N-hydroxyacrylamide formate]
12 | 1.81 | 2.09 | 1.41 | 1.05 | – | 0.3 | COc1ccc(-c2cnc(N3CCC(NCc4ccc(/C=C/C(=O)NO)c(F)c4)CC3)c(C#N)c2-c2ccc(C#N)nc2)cc1O [Example 258, (E)-3-(4-(((1-(3′,6-Dicyano-5′-(3-hydroxy-4-methoxyphenyl)-[3,4′-bipyridin]-2′-yl)piperidin-4-yl)amino)methyl)-2-fluorophenyl)-N-hydroxyacrylamide formate]
13 | 8.18 | 11.5 | 2.37 | 3.02 | – | 0.77 | COc1ccc(-c2cnc(N3CCC(NCc4ccc(/C=C(\F)C(=O)NO)cc4)CC3)c(C#N)c2-c2ccc(C#N)nc2)cc1O [Example 260, (Z)-3-(4-(((1-(3′,6-Dicyano-5′-(3-hydroxy-4-methoxyphenyl)-[3,4′-bipyridin]-2′-yl)piperidin-4-yl)amino)methyl)phenyl)-2-fluoro-N-hydroxyacrylamide dformate]
14 | 1.14 | 2.22 | 16.8 | 1.64 | – | 0.34 | COc1ccc(-c2cnc(N3CCC(NCc4ccc(/C=C/C(=O)NO)cc4)CC3)c(OC)c2-c2ccc(C#N)nc2)cc1O [Example 263, (E)-3-(4-(((1-(6-Cyano-5′-(3-hydroxy-4-methoxyphenyl)-3′-methoxy-[3,4′-bipyridin]-2′-yl)piperidin-4-yl)amino)methyl)phenyl)-N-hydroxyacrylamide formate]

Row | Structure (SMILES) | IC50 (NCI-H69 cells) [nM] | IC50 (NCI-H526 cells) [nM] | IC50 (LSD1) [nM] | IC50 (NCI-H1417 cells) [nM] | IC50 (HDAC8) [nM] | IC50 (pan-HDAC) [nM]
15 | O=C(CCCCCCC(=O)Nc1ccccc1)NO [SAHA, Vorinostat, reference compound] | – | 397 | – | – | – | –
